Test results as given in PubChem BioAssay AID1794829.
Results filed as inconclusive are left out.

Molecular target: Solute carrier family 2, facilitated glucose transporter member 2 (Homo sapiens) (UniProt P11168)
Experiment: SLC2A2-mediated glucose transport in cells – cell-based, flow cytometry, glucose FRET sensor, HEK293 JumpIN TRex, wild type, dose response (AID 1794829)
Conditions: HEK293 JumpIN SLC2A2-OE

Chain of Solute carrier family 2, facilitated glucose transporter member 2 (Homo sapiens) (P11168 whole entry, looked up): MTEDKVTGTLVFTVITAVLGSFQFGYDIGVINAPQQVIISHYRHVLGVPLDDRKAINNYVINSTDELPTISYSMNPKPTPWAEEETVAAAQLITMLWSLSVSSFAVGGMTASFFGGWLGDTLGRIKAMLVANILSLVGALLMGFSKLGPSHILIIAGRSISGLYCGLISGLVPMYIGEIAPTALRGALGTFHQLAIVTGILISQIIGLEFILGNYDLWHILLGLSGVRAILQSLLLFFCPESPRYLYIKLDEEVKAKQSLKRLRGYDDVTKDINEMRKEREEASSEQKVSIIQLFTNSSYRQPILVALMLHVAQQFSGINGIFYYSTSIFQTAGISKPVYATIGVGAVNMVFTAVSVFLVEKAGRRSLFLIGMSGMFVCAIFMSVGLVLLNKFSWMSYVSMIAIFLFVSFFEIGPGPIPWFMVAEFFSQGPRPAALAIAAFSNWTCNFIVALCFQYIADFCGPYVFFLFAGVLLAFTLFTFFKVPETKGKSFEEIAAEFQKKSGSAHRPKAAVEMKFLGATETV

EC50 (substrate-induced FRET increase): 710 µM
Compound: OC[C@H]1OC(O)[C@H](O)[C@@H](O)[C@@H]1O (stereo partly specified)
